Reference: patent US10874626B2, “Formulation for use in a method of treatment of pain” (NEVAKAR Inc., priority 2016, dated 2020)

Columns and labels:
[1] = test system: mouse whole blood (male), red blood cells; assay: In vitro hemolysis test, mouse blood; conditions: mouse whole unclotted blood, concentrations tested, 15 min at 37° C.
Procedure: (§1) APAP and GBP alone or in combination were evaluated in the in vitro hemolysis test using four biologic matrices (mouse, rat, dog and human whole unclotted blood) to determine the hemolytic potential for each on red blood cells.

[2] = test system: rat whole blood (male), red blood cells; assay: In vitro hemolysis test, rat blood; conditions: rat whole unclotted blood, concentrations tested, 15 min at 37° C.
Procedure: as §1

[3] = test system: human (pooled) whole blood, red blood cells; assay: In vitro hemolysis test, human blood; conditions: human whole unclotted blood, concentrations tested, 15 min at 37° C.
Procedure: as §1

[4] = test system: beagle dog whole blood (male), red blood cells; assay: In vitro hemolysis test, dog blood; conditions: dog whole unclotted blood, concentrations tested, 15 min at 37° C.
Procedure: as §1

[5] = Koshy et al; cited from earlier work
[6] = test system: Male ICR mice; assay: Mouse RotoRod/Acelerorod test; conditions: 15 minute IV infusion, 10 mg Acetaminophen/mL, 8 mg Gabapentin/mL, 1, 2, 4, 6 h
Procedure: Mouse tail flick test was conducted to evaluate test somatic pain and mouse rotorod/acelorod test evaluated behavioral changes, specifically somnolence or dizziness
In each case a positive control was administered as described below.
Male ICR mice were trained on a RotoRod/Acelerod at a continuous accelerating speed from 4 to 30 rpm/min during a time period of 4 minutes for at least 3 times on day 0. Vehicle or test article at a single dose is administered by intravenous infusion over 15 minutes starting 30 minutes before the test period starts and chlorpromazine (30 mg/kg, PO) was administered by oral gavage 60 minutes before the start of the test period. At 1, 2, 4, and 6 hours after the start of the test the mice are placed on the accelerating rotorod (increasing from 4 to 30 rpm/min during a 4 min period) and the time (seconds) the mouse remained on the rotorod was recorded. One-way ANOVA followed by Dunnett's test is applied for comparison between vehicle control and test article groups. P<0.05 is considered significant.
A baseline was measured before administration of the test agents and at 1, 2, 4 and 6 h post the start of the study. The effect of the compounds was evaluated in the standard RotoRod/Acelerorod test.

[7] = Stability of GBP in presence of different stabilizers and solvents; type: physicochemical; conditions: GBP 9 mg/mL in acetate buffer, PVP 10 mg/mL
Procedure: GBP containing formulations were prepared by dissolving GBP to a concentration of 9 mg/mL in acetate buffer. A first set of samples were tested for assay and impurities after the initial preparation of formulation, Another set of samples were steam sterilized at 121° C. for 15 min and were tested for assay and impurity levels.

[8] = oral; cited from earlier work
[9] = test system: Male rats; assay: Toxicologic profile in rats (clinical pathology, necropsy, histopathology); conditions: 24 h after 15 minute IV infusion, infusion site, lung, liver, kidney

Compound | Interpretation of hemolysis [1] | Interpretation of hemolysis [2] | Interpretation of hemolysis [3] | Interpretation of hemolysis [4] | pH range in which hydrolysis of APAP is minimum [5] | motor control (time on rotorod) compared to the vehicle control [6] | stability of GBP with stabilizer [7] | Plasma concentrations versus dose [8] | histopathology compared to the vehicle control [9]
CC(=O)Nc1ccc(O)cc1 [Acetaminophen, acetaminophen] | not considered to be hemolytic | not considered to be hemolytic | not considered to be hemolytic | not considered to be hemolytic | 5-7 | no statistically significant decrease in motor control | – | – | –
1-(aminomethyl) cyclohexane acetic acid [Gabapentin] | not considered to be hemolytic | not considered to be hemolytic | not considered to be hemolytic | not considered to be hemolytic | – | no statistically significant decrease in motor control | more stable | proportional with dose up to 1800 mg daily and then plateau at approximately 3600 mg daily | no changes in the histopathology in any tissue sampled
